Test results taken from patent US6770740B1, “Crosslinked DNA condesate compositions and gene delivery methods” (The Regents of the University of Michigan, priority 1999, dated 2004).
Where a SMILES comes first, the peptide text is derived from it.

Legend:
glutathione reductase = molecular target: T1, glutathione reductase (Homo sapiens, UniProt P00390); settings: challenged with glutathione reductase; Drummer et al., 1987; cited from earlier work
T1 sequence (P00390 44-522): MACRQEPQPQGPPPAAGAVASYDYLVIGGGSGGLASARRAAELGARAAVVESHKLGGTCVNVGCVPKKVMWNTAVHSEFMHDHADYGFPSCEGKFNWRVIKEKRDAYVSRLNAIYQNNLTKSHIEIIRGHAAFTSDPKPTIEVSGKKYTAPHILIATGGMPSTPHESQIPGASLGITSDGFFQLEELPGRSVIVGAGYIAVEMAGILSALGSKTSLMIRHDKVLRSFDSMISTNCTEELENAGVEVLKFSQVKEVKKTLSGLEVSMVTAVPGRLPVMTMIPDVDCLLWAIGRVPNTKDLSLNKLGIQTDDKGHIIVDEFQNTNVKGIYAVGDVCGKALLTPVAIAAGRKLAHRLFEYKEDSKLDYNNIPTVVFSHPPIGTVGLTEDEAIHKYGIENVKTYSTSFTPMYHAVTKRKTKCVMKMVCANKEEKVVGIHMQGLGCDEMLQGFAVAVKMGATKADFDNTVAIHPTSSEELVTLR

plasmid DNA [1] = experiment: Kinetics of peptide cross-linking on DNA (SYBR-Gold fluorescence), Example 5; format: physicochemical; settings: charge ratio 2:1
Procedure: The kinetics of cross-linking within peptide DNA condensates was studied indirectly by monitoring the displacement of SYBR-Gold™ intercalator dye from DNA condensates as a function of time. Peptide DNA condensates were prepared (200 μl of 50 μg/ml) at a peptide stoichiometry of 0.4 nmol per μg of DNA. Immediately after mixing peptide and DNA, a 10 μl aliquot was combined with 990 μl of SYBR-Gold™ (1X) and the fluorescence intensity (Ex 495 nm, Em 537 nm) was continuously monitored for 30 min.
The rate of cross-linking was also examined as a function of peptide concentration. The stoichiometry of peptide IV was increased from 0.4 to 1.2 nmol per μg of DNA and the rate of declining fluorescence intensity was determined as described above.

[2] = Shear stress stability of cross-linked DNA condensates (salt sonication), Example 5; format: physicochemical
Procedure: Peptide DNA condensates (200 μl of 50 μg/ml) were formed and incubated at RT for 30 min and then combined with 0 to 200 μl of 5 M sodium chloride and normalized to 400 μl with HBM to achieve a final sodium chloride concentration of 0, 0.2, 0.4, 0.8, 1.0, 1.5, 2.0, and 2.5 M. Each sample was sonicated for 30 sec with a 100 W Microson™ XL-2000 ultrasonic probe homogenizer (Kontes, Vineland N.J.) with a vibrational amplitude of 6 to fragment uncondensed DNA (Adami et al., 1998). DNA condensates were digested with 30 μg of trypsin for 12 h at 37° C. then electrophoresed on an agarose gel and visualized by ethidium bromide staining.

[3] = QELS particle size and zeta potential of cross-linking peptide DNA condensates, Example 5; format: physicochemical
Procedure: The particle size of each peptide DNA condensate was determined by quasielastic light scattering (QELS) at a scatter angle of both 15° and 90° on a Brookhaven ZetaPlus™ particle sizer. Condensates were prepared at a DNA concentration of 50 μg/ml in 400 μl HBM at a stoichiometry of 0.4 nmol of peptide per μg of DNA corresponding to a charge ratio of approximately 2:1 for each. The mean diameter and population distribution were computed from the diffusion coefficient using a unimodal cummulant analysis supplied by the manufacturer.
The particle size and zeta peptide IV DNA condensates were determined by titrating 7.5 to 37.5 nmol of peptide with 75 μg of DNA in 1.5 ml of HBM to produce 50 μg/ml DNA condensates with charge ratio of 0.5-2.5. The zeta potential was averaged from 10 determines.

[4] = Kinetics of peptide oxidation (disulfide bond formation) in solution by ES-MS; format: physicochemical; settings: pH 7.5, free in solution
Procedure: The kinetics of disulfide bond formation in solution was monitored by […]. […] Single ion monitoring (SIM) scans were taken at 20 sec intervals over 2 h while monitoring the disappearance of the M+2H^+ parent ion (1258 amu) and formation of the M+2H^+ ion of the oxidized species (1256 amu).

[5] = QELS particle size and zeta potential of peptide DNA condensates, Example 6; format: physicochemical; settings: charge ratio 4:1, 50 μg/ml DNA in HBM; for Particle Size (nm): 90°, average and SD of three, No particles formed; for Zeta Potential (mV): average and SD of ten
Procedure: The particle size and zeta potential of peptide DNA condensates were determined by quasielastic light scattering (QELS) using a Brookhave ZetaPlus™. Particle size analysis was performed in triplicate at a DNA concentration of 50 μg/ml in HBM at a charge ratio of 4:1 and a scattering angle of 90°. Data analysis utilized a multimodal volume distribution option included with the instrument. Zeta potential was also determined using 50 μg/ml peptide DNA condensates prepared at a 4:1 charge ratio in HBM. The reported zeta potential was averaged from ten determinations.

CHO cells = experiment: Luciferase gene expression in CHO cells, Example 6; format: cell-based; settings: 80 μM chloroquine
plasmid DNA [6] = experiment: Thiazole orange displacement titration of peptide binding to DNA, Example 6; settings: titration across charge ratios 0.25-8
Procedure: Peptide DNA condensates were prepared by combining 50 μg of DNA in 500 μl of Hepes buffered mannitol (HBM) (5 w/v% mannitol, 5 mM Hepes, pH 7.5) with […] of peptide in 500 μl of HBM while vortexing to form peptide DNA condensates with a calculated primary amine to phosphate charge ratio between 0.25 and 8.0 (NH4^+:PO4). The condensates were allowed to cross-link for 30 min prior to performing physical measurements. The binding of each peptide to DNA was assayed by combining peptide DNA condensates (50 μl) with 950 μl of HBM containing 0.1 μM thiazole orange. The fluorescence of the intercalated dye was measured using an LS50B fluorometer (Perkin Elmer, UK) by exciting at 500 nm while monitoring emission at 530 nm with the slit width set at 15 and 20 nm, respectively. Fluorescence blanks were substracted from all values before data analysis.

HepG2 cells = experiment: Luciferase gene expression in HepG2 cells, Example 6; format: cell-based; settings: HepG2, absence of chloroquine
Procedure: HepG2 cells (1.5×10^5) were plated on 6×35 mm wells and grown to 50% confluencey in MEM supplemented with 10% FBS, penicillin and streptomycin (100 U/ml), sodium pyruvate (100 mM), and L-glutamine (2 mM). Transfections were performed in MEM (2 ml per 35 mm well) with 2% FBS with and without 80 μM chloroquine. Peptide DNA condensates (10 μg of DNA of 0.2 ml HBM) were added dropwise to triplicate wells. After a 5 h incubation at 37° C., the medium was replaced with MEM supplemented with 10% FBS. After 24 h, cells were washed with ice-cold phosphate buffered saline (calcium and magnesium free) and then treated with 0.5 ml of ice-cold lysis buffer (25 mM) Tris chloride pH 7.8, 1 mM EDTA, 8 mM magnesium chloride, 1% Triton X-100, 1 mM DTT) for 10 min. The cell lysates were scraped, transferred to 1.5 ml microcentrifuge tube, and centrifuged for 7 min at 13,000 g at 4° C. to pellet debris.
Lysis buffer (300 μl), sodium-ATP (4 μl of a 180 mM solution, pH 7, 4° C.) and cell lysate (100 μl, 4° C.) were combined in a test tube, briefly mixed and immediately placed in the luminometer. Luciferase relative light units (RLU) were recorded on a Lumat™ LB 9501 (Berthoid Systems, Germany) with 10 sec integration after automatic injection of 100 μl of 0.5 mM D-luciferin (prepared fresh in lysis buffer without DTT). The RLU were converted into fmol using a standard curve generated by adding a known amount of luciferase (0.01 to 100 fmols with specific activity of 2.5 nU/fmol) to 35 mm wells containing 50% confluent cells and lysis buffer. Protein concentrations were measured by Bradford assay using bovine serum albumin as a standard (Bradford, 1976). […]
LipofectAce™ (Gibco BRL, 1:2.5 w/w dimethyl dioctadecylammonium bromide and dioleoyl phosphatidylethanolamine) was used to mediate gene transaction according to the manufacturer's instructions. […] The cells were incubated for a total of 24 h, harvested and analyzed for luciferase as described above.

plasmid DNA [7] = experiment: Kinetics of peptide cross-linking on DNA (SYBR-Gold), Example 6; format: physicochemical; settings: charge ratio 4:1
Procedure: The kinetics of disulfide bond formation of peptides bound to DNA was analyzed indirectly by monitoring the displacement of SYBR-Gold™ from DNA condensates. Peptide DNA condensates were formed by combining 20 μg of DNA in 500 μl of HBM containing 1× SYBR-Gold™ with 500 μl (26-52 nmol) of peptide in HBM containing 1 × SYBR-Gold to achieve a charge ratio of 4:1 (NH4^+:PO4). The fluorescence intensity (Ex 495 nm, Em 600 nm) was continuously monitored for 30 min to determine kinetics of cross-linking.

[8] = Shear stress stability (salt sonication assay), Example 6; format: physicochemical; settings: 30 sec sonication
Procedure: The relative stability of peptide DNA condensates were examined using a salt sonication assay (Adami and Rice, 1999). Peptide DNA condensates (200 μl of 50 μg/ml) were formed as described above, incubated at RT for 30 min and then combined with 0-200 μl of 5 m […] and normalized to 400 μl with HBM to achieve a final sodium chloride concentration of 0, 0.2, 0.4, 0.8, 1.0, 1.5, 2.0 and 2.5 M. Each sample was sonicated for 30 sec with a 100 W Microson™ XL-2000 ultrasonic probe homogenizer (Kontes, Vineland N.J.) with a vibrational amplitude of 5 fragment uncondensed DNA. DNA condensates were digested with 30 μg to trypsin for 12 h at 37° C., electrophoresed on a 1% agarose gel electrophoresed in TEA buffer for 2 h, then visualized by ethidium bromide staining and destaining prior to photography on a transilluminator.

COS 7 cells = experiment: Luciferase gene expression in COS 7 cells, Example 6; format: cell-based; settings: COS 7, 80 μM chloroquine

Molecule: CC(C)(SSC(C)(C)C(N)C(=O)O)C(N)C(=O)O (stereo not shown) [Penicillamine disulfide]
- stability relative to cystine (glutathione reductase): approximately 26 fold

Molecule: NCCCC[C@H](NC(=O)[C@H](CCCCN)NC(=O)[C@H](CCCCN)NC(=O)[C@H](CCCCN)NC(=O)[C@H](CS)NC(=O)[C@H](CCCCN)NC(=O)[C@H](CCCCN)NC(=O)[C@H](CCCCN)NC(=O)[C@H](CS)NC(=O)[C@H](CCCCN)NC(=O)[C@H](CCCCN)NC(=O)[C@H](CCCCN)NC(=O)[C@H](CS)NC(=O)[C@H](CCCCN)NC(=O)[C@H](CCCCN)NC(=O)[C@H](CCCCN)NC(=O)[C@H](CCCCN)NC(=O)[C@H](Cc1c[nH]c2ccccc12)NC(=O)[C@@H](N)CS)C(=O)N[C@@H](CS)C(=O)O [V, Cys-Trp-Lys4-Cys-Lys3-Cys-Lys3-Cys-Lys4-Cys] (H-CWKKKKCKKKCKKKCKKKKC-OH; N-terminus and C-terminus assumed)
- time of inter-peptide cross-linking on DNA (plasmid DNA [1]): less than 30 min
- sodium chloride concentration of DNA condensate stability after reduction ([2]; DNA condensates reduced with TCEP): 0.4 M
- sodium chloride concentration above which DNA was not protected, pre-oxidized peptide ([2]; peptide fully oxidized prior to making DNA condensates): 0.4 M
- Particle Size Mean Diameter, Oxidized, 15° ([3]; HBM after 2 h incubation, 50 μg/ml DNA, 0.4 nmol peptide per μg DNA, scattering angle 15°): 41 nm
- Particle Size Mean Diameter, Oxidized, 90° ([3]; HBM after 2 h incubation, 50 μg/ml DNA, 0.4 nmol peptide per μg DNA, scattering angle 90°): 57 nm
- Particle Size Mean Diameter, Saline ([3]; HBM with added saline (0.15 M) after 15 min): 93 nm
- Particle Size Mean Diameter, Reduced ([3]; following addition of TCEP (1 mM)): 171 nm
- half-life at 100 µM ([4]; methanol/ammonium acetate solution, read-out: t½ of disappearance of the parent ion (intra-molecular disulfide formation)): ~10 min
- time to complete disappearance of the parent ion [4]: ≤ 25 min

Molecule: Cys-(Lys)4-Cys (CKKKKC) [Peptide 5]
- Particle Size (nm) [5]: 38 ± 10 nm
- gene expression relative to peptide 3, 6 and 7 (CHO cells): three-orders of magnitude lower
- charge ratio (NH4+:PO4) needed to condense DNA (thiazole orange fluorescence minimum) (plasmid DNA [6]): 3

Molecule: Cys-(Lys)4-His-(Lys)3-Cys (CKKKKHKKKC) [Peptide 12]
- higher gene expression compared to peptide 7 DNA condensates (HepG2 cells): 3 fold
- time to completion of cross-linking on DNA (SYBR-Gold asymptote) (plasmid DNA [7]): less than 10 min
- Particle Size (nm) [5]: 87 ± 20 nm
- Zeta Potential (mV) [5]: 30 ± 2 mV

Molecule: Cys-(Lys)8-Cys (CKKKKKKKKC) [Peptide 7]
- sodium chloride concentration at which DNA condensates dissociate [8]: 0.8 to 1 M
- lower gene expression relative to peptide 3, 5 and 6 DNA condensates (COS 7 cells): 5 fold
- Particle Size (nm) [5]: 53 ± 16 nm
- Zeta Potential (mV) [5]: 26 ± 2 mV
- charge ratio (NH4+:PO4) needed to condense DNA (thiazole orange fluorescence minimum) (plasmid DNA [6]): 2
